ChEMBL document CHEMBL4715742, “Design, synthesis and cytotoxic activities of novel 2,5-diketopiperazine derivatives” (Eur J Med Chem, 2016)

Key:
U-937 [1] = assay: Cytotoxicity against human U-937 cells assessed as cell viability at 1.1 uM measured after 24 hrs by CCK8 assay relative to control; format: functional; conditions: read-out: Activity
K562 [2] = assay: Cytotoxicity against human K562 cells assessed as cell viability at 1.1 uM measured after 48 hrs by CCK8 assay relative to control; format: functional; conditions: read-out: Activity
K562 [3] = assay: Cytotoxicity against human K562 cells assessed as cell viability at 3.3 uM measured after 72 hrs by CCK8 assay relative to control; format: functional; conditions: read-out: Activity
U-937 [4] = assay: Induction of apoptosis in human U-937 cells assessed as late apoptotic cells at 2 uM measured after 48 hrs by annexinV/FITC-propidium iodide staining based flow cytometry (reference value: 3.27 to 3.41 %); format: functional
U-937 [5] = assay: Cytotoxicity against human U-937 cells assessed as cell viability at 1.1 uM measured after 72 hrs by CCK8 assay relative to control; format: functional; conditions: read-out: Activity
K562 [6] = assay: Cytotoxicity against human K562 cells assessed as reduction in cell viability measured after 24 to 72 hrs by CCK8 assay; format: functional, cell-based; conditions: dose 0.37-3.3 µM, time 24-72 hrs
A549 = assay: Cytotoxicity against human A549 cells assessed as reduction in cell viability measured after 72 hrs by CCK8 assay; format: functional, cell-based; conditions: Homo sapiens, A549, 72 h; read-out: IC50
K562 [7] = assay: Cytotoxicity against human K562 cells assessed as cell viability at 1.1 uM measured after 72 hrs by CCK8 assay relative to control; format: functional; conditions: read-out: Activity
U-937 [8] = assay: Induction of apoptosis in human U-937 cells assessed as early apoptotic cells at 1 uM measured after 48 hrs by annexinV/FITC-propidium iodide staining based flow cytometry (reference value: 1.78 to 1.88 %); format: functional
U-937 [9] = assay: Induction of apoptosis in human U-937 cells assessed as late apoptotic cells at 1 uM measured after 48 hrs by annexinV/FITC-propidium iodide staining based flow cytometry (reference value: 3.27 to 3.41 %); format: functional
K562 [10] = assay: Cytotoxicity against human K562 cells assessed as reduction in cell viability at 0.37 to 3.3 uM by CCK8 assay; format: functional, cell-based; conditions: dose 0.37-3.3 µM, time 24-72 hrs, TDE = time-dependent effect
K562 [11] = assay: Cytotoxicity against human K562 cells assessed as cell viability at 0.37 uM measured after 48 hrs by CCK8 assay relative to control; format: functional; conditions: read-out: Activity
U-937 [12] = assay: Induction of apoptosis in human U-937 cells assessed as necrotic cells at 2 uM measured after 48 hrs by annexinV/FITC-propidium iodide staining based flow cytometry (reference value: 0.794 to 0.955 %); format: functional
U-937 [13] = assay: Induction of apoptosis in human U-937 cells assessed as apoptotic ratio at 0.5 uM measured after 48 hrs by annexinV/FITC-propidium iodide staining based flow cytometry (reference value: 5.2 +/- 0.2 %); format: functional
U-937 [14] = assay: Induction of apoptosis in human U-937 cells assessed as apoptotic ratio at 1 uM measured after 24 hrs by annexinV/FITC-propidium iodide staining based flow cytometry (reference value: 3.7 +/- 0.3 %); format: functional
U-937 [15] = assay: Induction of apoptosis in human U-937 cells assessed as early apoptotic cells at 0.5 uM measured after 24 hrs by annexinV/FITC-propidium iodide staining based flow cytometry (reference value: 1.28 to 1.68 %); format: functional
U-937 [16] = assay: Cytotoxicity against human U-937 cells assessed as cell viability at 3.3 uM measured after 48 hrs by CCK8 assay relative to control; format: functional; conditions: read-out: Activity
K562 [17] = assay: Cytotoxicity against human K562 cells assessed as cell viability at 0.37 uM measured after 24 hrs by CCK8 assay relative to control; format: functional; conditions: read-out: Activity
K562 [18] = assay: Cytotoxicity against human K562 cells assessed as cell viability at 1.1 uM measured after 24 hrs by CCK8 assay relative to control; format: functional; conditions: read-out: Activity
U-937 [19] = assay: Cytotoxicity against human U-937 cells assessed as cell viability at 3.3 uM measured after 72 hrs by CCK8 assay relative to control; format: functional; conditions: read-out: Activity
U-937 [20] = assay: Induction of apoptosis in human U-937 cells assessed as viable cells at 0.5 uM measured after 48 hrs by annexinV/FITC-propidium iodide staining based flow cytometry (reference value: 93.7 to 94.2 %); format: functional; conditions: read-out: Activity
U-937 [21] = assay: Induction of apoptosis in human U-937 cells assessed as early apoptotic cells at 2 uM measured after 48 hrs by annexinV/FITC-propidium iodide staining based flow cytometry (reference value: 1.78 to 1.88 %); format: functional
K562 [22] = assay: Cytotoxicity against human K562 cells assessed as reduction in cell viability measured after 72 hrs by CCK8 assay; format: functional, cell-based; conditions: Homo sapiens, K562, 72 h; read-out: IC50
U-937 [23] = assay: Induction of apoptosis in human U-937 cells assessed as viable cells at 2 uM measured after 24 hrs by annexinV/FITC-propidium iodide staining based flow cytometry (reference value: 95 to 95.1 %); format: functional; conditions: read-out: Activity
U-937 [24] = assay: Induction of apoptosis in human U-937 cells assessed as late apoptotic cells at 2 uM measured after 24 hrs by annexinV/FITC-propidium iodide staining based flow cytometry (reference value: 2.18 to 2.22 %); format: functional
U-937 [25] = assay: Cytotoxicity against human U-937 cells assessed as cell viability at 3.3 uM measured after 24 hrs by CCK8 assay relative to control; format: functional; conditions: read-out: Activity
U-937 [26] = assay: Induction of apoptosis in human U-937 cells assessed as late apoptotic cells at 0.5 uM measured after 48 hrs by annexinV/FITC-propidium iodide staining based flow cytometry (reference value: 3.27 to 3.41 %); format: functional
U-937 [27] = assay: Induction of apoptosis in human U-937 cells assessed as necrotic cells at 0.5 uM measured after 24 hrs by annexinV/FITC-propidium iodide staining based flow cytometry (reference value: 1.12 to 1.48 %); format: functional
U-937 [28] = assay: Induction of apoptosis in human U-937 cells assessed as necrotic cells at 2 uM measured after 24 hrs by annexinV/FITC-propidium iodide staining based flow cytometry (reference value: 1.12 to 1.48 %); format: functional
U-937 [29] = assay: Cytotoxicity against human U-937 cells assessed as reduction in cell viability measured after 72 hrs by CCK8 assay; format: functional, cell-based; conditions: Homo sapiens, U-937, 72 h; read-out: IC50
K562 [30] = assay: Cytotoxicity against human K562 cells assessed as cell viability at 3.3 uM measured after 48 hrs by CCK8 assay relative to control; format: functional; conditions: read-out: Activity
U-937 [31] = assay: Cytotoxicity against human U-937 cells assessed as reduction in cell viability measured after 24 to 72 hrs by CCK8 assay; format: functional, cell-based; conditions: dose 0.37-3.3 µM, time 24-72 hrs
U-937 [32] = assay: Induction of apoptosis in human U-937 cells assessed as necrotic cells at 1 uM measured after 24 hrs by annexinV/FITC-propidium iodide staining based flow cytometry (reference value: 1.12 to 1.48 %); format: functional
K562 [33] = assay: Cytotoxicity against human K562 cells assessed as cell viability at 0.37 uM measured after 72 hrs by CCK8 assay relative to control; format: functional; conditions: read-out: Activity
U-937 [34] = assay: Induction of apoptosis in human U-937 cells assessed as necrotic cells at 0.5 uM measured after 48 hrs by annexinV/FITC-propidium iodide staining based flow cytometry (reference value: 0.794 to 0.955 %); format: functional
U-937 [35] = assay: Induction of apoptosis in human U-937 cells assessed as apoptotic ratio at 1 uM measured after 48 hrs by annexinV/FITC-propidium iodide staining based flow cytometry (reference value: 5.2 +/- 0.2 %); format: functional

`C=CCn1c(=O)/c(=C/CCCC)[nH]c(=O)/c1=C/c1ccc(OC)cc1` showed a viability at 1.1 µM (U-937 [1]) of 17.4%, a viability at 1.1 µM (K562 [2]) of 28.7% and a viability at 3.3 µM (K562 [3]) of 3.5%. For the same compound, the Activity (U-937 [4]) was 35.1%, the viability at 1.1 µM (U-937 [5]) was 3.3% and the Activity (K562 [6]) was “Dose-dependent effect”. It also gave an IC50 (A549) of 1.7 µM, a viability at 1.1 µM (K562 [7]) of 17.3% and an Activity (U-937 [8]) of 10.8%. The Activity (U-937 [9]) was 14.5%, the Activity (K562 [10]) was “Tde” and the viability at 0.37 µM (K562 [11]) was 90.9%. The Activity (U-937 [12]) was 1.26%, the Activity (U-937 [13]) was 16.7% and the Activity (U-937 [14]) was 16%. The Activity (U-937 [15]) was 4.09%, the viability at 3.3 µM (U-937 [16]) was 0% and the viability at 0.37 µM (K562 [17]) was 87.8%. It also gave a viability at 1.1 µM (K562 [18]) of 50%, a viability at 3.3 µM (U-937 [19]) of 0% and a viability at 0.5 µM (U-937 [20]) of 81.4%. The Activity (U-937 [21]) was 9.76%, the IC50 (K562 [22]) was 0.6 µM and the viability at 2 µM (U-937 [23]) was 77.9%. The Activity (U-937 [24]) was 10.3%, the viability at 3.3 µM (U-937 [25]) was 1.6% and the Activity (U-937 [26]) was 8.32%. For the same compound, the Activity (U-937 [27]) was 1.07%, the Activity (U-937 [28]) was 1.22% and the IC50 (U-937 [29]) was 0.36 µM. For the same compound, the viability at 3.3 µM (K562 [30]) was 8.6%, the Activity (U-937 [31]) was “Dose-dependent effect” and the Activity (U-937 [32]) was 1.13%. It also gave a viability at 0.37 µM (K562 [33]) of 86.2%, an Activity (U-937 [34]) of 1.05% and an Activity (U-937 [35]) of 25.8%.
